Measured values reported in patent publication US11180474B2 (BRISTOL-MYERS SQUIBB COMPANY, priority 2016, dated 2021).

The compounds below were run against T1, human TLR8 (Homo sapiens, UniProt Q9NR97) (assay: TLR8 inhibition reporter assay (HEK-Blue cells, SEAP reporter, R848 stimulation)). Settings: HEK-Blue cells overexpressing human TLR8, R848 15.9 μM.
T1 construct: host or cells: HEK-Blue cells
T1 sequence (Q9NR97 27-1041): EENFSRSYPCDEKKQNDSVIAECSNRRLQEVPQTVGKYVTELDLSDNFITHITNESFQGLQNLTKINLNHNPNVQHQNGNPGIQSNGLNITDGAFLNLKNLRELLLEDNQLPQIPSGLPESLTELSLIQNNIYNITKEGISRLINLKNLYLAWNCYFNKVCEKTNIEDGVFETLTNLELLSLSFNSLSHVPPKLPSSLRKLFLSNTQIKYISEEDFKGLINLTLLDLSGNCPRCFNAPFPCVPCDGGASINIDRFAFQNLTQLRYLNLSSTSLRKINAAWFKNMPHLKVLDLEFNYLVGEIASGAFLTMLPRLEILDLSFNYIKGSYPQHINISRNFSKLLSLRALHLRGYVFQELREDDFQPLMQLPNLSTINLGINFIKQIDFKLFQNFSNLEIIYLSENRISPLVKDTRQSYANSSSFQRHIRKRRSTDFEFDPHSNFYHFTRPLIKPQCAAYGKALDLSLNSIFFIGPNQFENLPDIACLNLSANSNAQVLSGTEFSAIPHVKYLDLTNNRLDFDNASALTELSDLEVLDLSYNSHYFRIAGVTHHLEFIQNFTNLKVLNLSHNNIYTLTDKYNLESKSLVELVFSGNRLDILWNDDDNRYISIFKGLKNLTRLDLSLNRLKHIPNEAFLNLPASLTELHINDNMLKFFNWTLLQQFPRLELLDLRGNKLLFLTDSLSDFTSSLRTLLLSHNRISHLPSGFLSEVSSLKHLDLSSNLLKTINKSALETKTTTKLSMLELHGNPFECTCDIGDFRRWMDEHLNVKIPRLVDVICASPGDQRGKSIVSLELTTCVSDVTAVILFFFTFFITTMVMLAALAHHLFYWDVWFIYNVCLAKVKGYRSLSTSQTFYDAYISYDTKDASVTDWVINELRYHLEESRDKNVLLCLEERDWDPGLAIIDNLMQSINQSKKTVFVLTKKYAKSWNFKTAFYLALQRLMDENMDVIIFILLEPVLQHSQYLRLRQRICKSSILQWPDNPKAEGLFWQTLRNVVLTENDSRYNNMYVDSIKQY
Assay type: cell-based
Outline: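 Dose-response testing from 0.05 nM to 50 μM final was done on reporter cells for 22 hours at 37° C. Secreted SEAP was then detected, and inhibition was calculated as percent reduction of the agonist-plus-DMSO signal compared with wells given a known inhibitor.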

SMILES	IC50
COc1ccc(-c2[nH]c3ccc(C4CCN(C(=O)CN5CCC[C@H](C(=O)N6CC[C@H](O)C6)C5)CC4)cc3c2C(C)C)cc1OC [Example 301, 1-(4-(2-(3,4-dimethoxyphenyl)-3-isopropyl-1H-indol-5-yl)piperidin-1-yl)-2-((S)-3-((S)-3-hydroxypyrrolidine-1-carbonyl)piperidin-1-yl)ethan-1-one]	19 nM
CCN(CC)C(=O)C1CCCN(CC(=O)N2CCC(c3ccc4[nH]c(-c5ccc(OC)c(OC)c5)c(C(C)C)c4c3)CC2)C1 (centres unmarked) [Example 224, 1-(2-(4-(2-(3,4-dimethoxyphenyl)-3-isopropyl-1H-indol-5-yl)piperidin-1-yl)-2-oxoethyl)-N,N-diethylpiperidine-3-carboxamide]	27 nM
COc1ccc(-c2[nH]c3ccc(C4CCN(C(=O)CN5CCC[C@@H](C(=O)N6CCN(C(C)C)CC6)C5)CC4)cc3c2C(C)C)cc1OC [Example 302, (R)-1-(4-(2-(3,4-dimethoxyphenyl)-3-isopropyl-1H-indol-5-yl)piperidin-1-yl)-2-(3-(4-isopropylpiperazine-1-carbonyl)piperidin-1-yl)ethan-1-one]	18 nM
COc1ccc(-c2[nH]c3ccc(C4CCN(C(=O)CN5CCC[C@H](C(=O)N6CCN(CCN7CCCC7)CC6)C5)CC4)cc3c2C(C)C)cc1OC [Example 293, (S)-1-(4-(2-(3,4-dimethoxyphenyl)-3-isopropyl-1H-indol-5-yl)piperidin-1-yl)-2-(3-(4-(2-(pyrrolidin-1-yl)ethyl)piperazine-1-carbonyl)piperidin-1-yl)ethan-1-one]	33 nM
CCC(CO)NCC(=O)N1CCC(c2ccc3[nH]c(-c4ccc(OC)c(OC)c4)c(C(C)C)c3c2)CC1 (centres unmarked) [Example 233, 1-(4-(2-(3,4-dimethoxyphenyl)-3-isopropyl-1H-indol-5-yl)piperidin-1-yl)-2-((1-hydroxybutan-2-yl)amino)ethan-1-one]	27 nM
COc1ccc(-c2[nH]c3ccc(C4CCN(Cc5cncn5C)CC4)cc3c2C(C)C)cc1OC [Example 258, 2-(3,4-dimethoxyphenyl)-3-isopropyl-5-(1-((1-methyl-1H-imidazol-5-yl)methyl)piperidin-4-yl)-1H-indole]	17 nM
COc1ccc(-c2[nH]c3ccc(C4CCN(CC(=O)NCCCO)CC4)cc3c2C(C)C)cc1OC [Example 277, 2-(4-(2-(3,4-dimethoxyphenyl)-3-isopropyl-1H-indol-5-yl)piperidin-1-yl)-N-(3-hydroxypropyl)acetamide]	37 nM
COc1ccc(-c2[nH]c3ccc(C4CCN(C(=O)CN5CCC[C@H](C(=O)N6CCC(CCO)CC6)C5)CC4)cc3c2C(C)C)cc1OC [Example 291, (S)-1-(4-(2-(3,4-dimethoxyphenyl)-3-isopropyl-1H-indol-5-yl)piperidin-1-yl)-2-(3-(4-(2-hydroxyethyl)piperidine-1-carbonyl)piperidin-1-yl)ethan-1-one]	17 nM
COc1ccc(-c2[nH]c3ccc(C4CCN(C(=O)CN5CCC[C@H](C(=O)NCC#N)C5)CC4)cc3c2C(C)C)cc1OC [Example 297, (S)—N-(cyanomethyl)-1-(2-(4-(2-(3,4-dimethoxyphenyl)-3-isopropyl-1H-indol-5-yl)piperidin-1-yl)-2-oxoethyl)piperidine-3-carboxamide]	19 nM
COc1ccc(-c2[nH]c3ccc(C4CCN(C(=O)CN(C)C(C)C)CC4)cc3c2C(C)C)cc1OC [Example 227, 1-(4-(2-(3,4-dimethoxyphenyl)-3-isopropyl-1H-indol-5-yl)piperidin-1-yl)-2-(isopropyl(methyl)amino) ethan-1-one]	24 nM
CNCC(=O)N1CCC(c2ccc3[nH]c(-c4ccc(OC)c(OC)c4)c(C(C)C)c3c2)CC1 [Example 256, 1-(4-(2-(3,4-dimethoxyphenyl)-3-isopropyl-1H-indol-5-yl)piperidin-1-yl)-2-(methylamino)ethan-1-one]	35 nM
